# Columns and labels:
# [1] = system: protein kinase C; settings: statement in words, cited from earlier work
# [2] = system: Human leukemia cells U937; assay: Viability of U937 cells after γ-irradiation (propidium iodide exclusion, FACS); format: cell-based; settings: 3 nM bryostatin 1 for 24 hours, then 500 or 1000 rads; viability 72 hours after irradiation; triplicate
# Description: Human leukemia cells U937 were treated for 24 hours with either 3 nM bryostatin 1 or the control solution, i.e., the vehicle for bryostatin 1. The cells were then irradiated with either 500 or 1000 rads of γ-irradiation. Seventy-two hours after irradiation, cellular viability was examined using propidium iodide exclusion and quantified by FACS analysis as previously described in Ways et al., Cell Growth & Differentiation 1994, 5: 1195-1203. Viability assays were performed in triplicate. […] Similar results were obtained in several repeated experiments.
# [3] = target: T1, PKC-β (Homo sapiens, UniProt P05771); assay: Western blot of PKC-β in bryostatin 1 treated U937 cells; format: cell-based
# T1 construct: endogenous in cells; host or cells: U937 human leukemia cells
# T1 sequence (P05771 whole entry): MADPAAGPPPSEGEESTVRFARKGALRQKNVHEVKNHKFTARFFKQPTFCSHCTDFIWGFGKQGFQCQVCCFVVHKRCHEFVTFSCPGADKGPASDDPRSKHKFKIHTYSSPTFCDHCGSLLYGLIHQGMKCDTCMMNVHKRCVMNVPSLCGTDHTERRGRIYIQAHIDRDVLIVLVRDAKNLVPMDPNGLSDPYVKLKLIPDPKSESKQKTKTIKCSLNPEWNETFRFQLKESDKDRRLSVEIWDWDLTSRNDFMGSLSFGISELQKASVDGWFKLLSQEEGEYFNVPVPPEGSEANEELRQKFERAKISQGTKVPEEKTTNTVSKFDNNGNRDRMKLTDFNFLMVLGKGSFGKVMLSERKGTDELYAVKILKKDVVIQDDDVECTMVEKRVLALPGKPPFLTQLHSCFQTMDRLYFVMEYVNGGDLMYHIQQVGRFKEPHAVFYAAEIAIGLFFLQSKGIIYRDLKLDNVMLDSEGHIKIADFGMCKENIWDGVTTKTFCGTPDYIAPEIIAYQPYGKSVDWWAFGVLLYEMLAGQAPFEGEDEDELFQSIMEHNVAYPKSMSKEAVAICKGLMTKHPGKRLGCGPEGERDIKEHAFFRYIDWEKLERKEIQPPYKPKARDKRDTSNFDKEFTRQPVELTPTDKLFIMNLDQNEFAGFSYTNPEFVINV
# Description: Human leukemia cells U937 in the amount of 0.5×10^6 were treated with various amount of bryostatin 1 for 24 hours. Subsequently, the cells were solubilized for preparation of protein samples according to a routine procedure. The protein samples from bryostatin treated cells were then used in Western blot analysis with a protein kinase C-β specific antiserum previously described in Ways et al., Cell Growth & Differentiation 1994, 5: 1195-1203. […] In a repeated experiment, similar results were obtained.
SMILES,isozyme selectivity ([1]; selective to protein kinase C over other kinases),protein kinase C inhibition ([1]; no value),γ-irradiation-induced apoptosis [2],time within which bryostatin treatment caused PKC-β activity to decrease ([3]; 1 nM bryostatin) [h],time within which bryostatin treatment caused PKC-β activity to decrease ([3]; 10 nM bryostatin) [h]
"CN(C)C[C@@H]1CCn2cc(c3ccccc32)C2=C(C(=O)NC2=O)c2cn(c3ccccc23)CCO1.Cl [Example 5g, (S)-3,4-[N, N′-1,1′-((2″-ethoxy)-3′″(O)-4′″-(N,N-dimethylamino)-butane)-bis-(3,3′-indolyl)]-1(H)-pyrrole-2,5-dione Hydrochloride Salt]",selective for the beta-1 and beta-2 isozymes,potent protein kinase C inhibitor,,,
CCC/C=C/C=C/C(=O)O[C@H]1/C(=C/C(=O)OC)C[C@H]2C[C@H]([C@@H](C)O)OC(=O)C[C@H](O)C[C@@H]3C[C@H](OC(C)=O)C(C)(C)[C@](O)(C[C@@H]4C/C(=C/C(=O)OC)C[C@H](/C=C/C(C)(C)[C@]1(O)O2)O4)O3 [bryostatin 1],,,enhanced,≤ 24,≤ 2

# Source: patent publication US6486179B2, “Use of protein kinase C inhibitors to enhance the clinical efficacy of oncolytic agents and radiation therapy” (Eli Lilly and Company, priority 1996, dated 2002)
